Where a SMILES comes first, the peptide text is derived from it. Bridges are numbered along the chain shown (N, C = ends). Roman numbers before positions name the chains, in order.
Columns and labels:
[1] = system: biotinylated 13-residue peptides (A-I) spanning the C-terminal region of MSP2; assay: Fine specificity of antisera by peptide array ELISA (peptides A-I); assay type: in vivo, mouse; conditions: individual sera of mice immunised with peptide-KLH conjugate or MSP2 mix, diluted 1:1000; indirect ELISA; peptides C-D span 9H4 epitope, E-G span 4D11 epitope
Procedure: Peptide was conjugated to maleimide-activated KLH (Sigma-Aldrich) following the manufacturer’s protocol. Briefly, 1 mg of each peptide was mixed with 1 mg KLH in the provided buffer for a 200-fold molar excess of peptide to carrier protein. The reaction mixture was degassed under nitrogen and mixed at room temperature (RT) for 2 h. Any unreacted peptide was removed by dialysis against PBS using a 10 kDa cut-off membrane. The extent of conjugation was determined using Ellman’s reagent. Peptide-KLH conjugate stock solution was stored at 4 °C until further use. Prior to immunisation, peptide-KLH conjugates were diluted to 1 mg/mL in PBS and formulated with Montanide ISA720 at an antigen:adjuvant ratio of 3:7 and a final concentration of 0.3 mg/mL. The 3D7 + FC27 MSP2 mix was formulated using 0.15 mg/mL of each allelic form. Female C57BL/6 mice (n = 6 per group) were inoculated subcutaneously with 100 µL containing 30 µg of antigen at weeks 0, 4 and 8, then euthanised at week 10. Sera were collected and stored at −80 °C.
(§1) To determine peptide-KLH binding to 4D11 and 9H4, Maxisorp 96-well microtitre plates (Nunc, Rochester, NY, USA) were coated overnight at 4 °C with 2 µg/mL peptide-KLH in PBS. The plates were blocked with 1% BSA in PBS for 1 h before adding 100 µL of 4D11 and 9H4 IgG in eleven half log10 serial dilutions starting from stock at 1 µg/mL. After 1 h incubation at 4 °C and washing, antigen-bound antibodies were detected with goat anti-mouse IgG (1:2000 dilution) and freshly prepared 2,2-azinobis(3-ethylbenzthiazolinesulfonic acid (ABTS) substrate (1 mm) in citric acid buffer, pH 4.2, containing […]. The absorbance was read at 405 nm using a microplate reader. For determination of peptide-specific antibody titres, peptide-BSA conjugate was coated on the plate at 2 µg/mL. Individual mouse sera were added at a starting dilution of 1000-fold with six half log10 serial dilutions. Endpoint titres were taken as the x-axis intercept of the dilution curve at an absorbance value of three standard deviations (s.d.) greater than OD405 for naïve mouse serum. The fine specificities of the antisera were determined by ELISA using an array of nine biotinylated 13-residue peptides (A-I), which overlap by 2 or 3 residues and spanned the C-terminal region of MSP2 [11, 13]. Maxisorp 96-well microtitre plates (Nunc) were coated overnight at 4 °C with 1 µg/mL streptavidin in PBS. The plates were blocked with 1% BSA in PBS for 2 h before adding 1:500 biotinylated peptides. Individual sera samples were diluted 1:1000 in blocking solution before addition to the peptide array. Antibody was detected with the same protocol as mentioned above.
To characterise the response against these dimeric peptides further, the specificity of the induced antibodies was determined by indirect ELISA using an array of nine biotinylated peptides that spanned the epitopes recognised by the 4D11 and 9H4 mAbs (peptides A-I) (Table 3). Peptides C and D spanned the 9H4 epitope, whilst peptides E to G spanned the 4D11 epitope. […] However, the response against MSP2 was largely dominated by a single mouse in the group.

[2] = system: FC27 (D10 clone) merozoites; assay: Merozoite ELISA with pooled mouse sera, FC27 merozoites; assay type: in vivo, P. falciparum; conditions: pooled sera of immunised mice, two-fold dilutions from 1:500; merozoites 1 × 10^7/well; OD 450 nm; rank order in words
Procedure: (§2) The reactivity of mouse polyclonal antibodies with merozoites was determined by ELISA using merozoites from both the 3D7 and FC27 (D10 clone) strains of P. falciparum. The parasites were cultured in human erythrocytes at a haematocrit of 3% in RPMI media supplemented with […]. Viable merozoites were isolated as described previously. Highly synchronised late-stage schizonts were magnet-purified via a MACS magnet separation column (Miltenyi Biotec, Macquarie Park, Australia) and treated with E64 protease inhibitor (ThermoFisher Scientific, Scoresby, Australia) until mature merozoites were formed. Merozoites were released forcing them through a 1.2 µm filter.
Purified whole merozoites were resuspended in PBS supplemented with a cocktail of protease inhibitors (Roche, Castle Hill, Australia). Isolated merozoites were used to coat Nunc Maxisorp™ plates at 1 × 10^7/well and incubated overnight at 4 °C. The plates were then blocked with 1% casein in PBS at 37 °C for 2 h (or overnight at 4 °C). Pooled sera samples were added to wells at two-fold serial dilution in duplicate with a starting dilution of 1:500 and incubated at RT for 1 h. The plates were further incubated with HRP-conjugated goat anti-mouse IgG antibody diluted at 1:1000 in 0.1% casein in PBS at RT for 1 h. The plates were washed six times with PBS between each incubation step. […] The OD was measured at 450 nm. […]

3D7 merozoites = assay: Merozoite ELISA with pooled mouse sera, 3D7 merozoites; assay type: in vivo, P. falciparum; conditions: pooled sera of immunised mice, two-fold dilutions from 1:500; merozoites 1 × 10^7/well; OD 450 nm; rank order in words
Procedure: as §2
Purified whole merozoites were resuspended in PBS supplemented with a cocktail of protease inhibitors (Roche, Castle Hill, Australia). Isolated merozoites were used to coat Nunc Maxisorp™ plates at 1 × 10^7/well and incubated overnight at 4 °C. The plates were then blocked with 1% casein in PBS at 37 °C for 2 h (or overnight at 4 °C). Pooled sera samples were added to wells at two-fold serial dilution in duplicate with a starting dilution of 1:500 and incubated at RT for 1 h. The plates were further incubated with HRP-conjugated goat anti-mouse IgG antibody diluted at 1:1000 in 0.1% casein in PBS at RT for 1 h. The plates were washed six times with PBS between each incubation step. Finally, 3,3′,5,5′-tetramethylbenzidine (TMB) substrate (Thermo Fisher Scientific, Scoresby, Australia) was added to the wells for the development of colour for 15 min and the reaction was stopped with 1 M sulfuric acid. The OD was measured at 450 nm.
The ability to induce an immune response that can recognise parasite MSP2 is essential in the design of an MSP2-based peptide vaccine. We isolated merozoites from both 3D7 and FC27 (D10 clone) strains of P. falciparum, coated them on ELISA plates and probed them with sera from the immunised mice (Figure 6). mAb 4D11 and the MSP2 mix pre-bleed were also included as positive and negative controls, respectively.

4D11 IgG = assay: ELISA binding of 4D11 IgG against BSA-peptide conjugates; design: species or system mouse; conditions: peptide maleimide-conjugated to BSA coated on plate
Procedure: as §1, with “To determine peptide-KLH binding to 4D11 and 9H4, Maxisorp 96-well microtitre plates (Nunc, Rochester, NY, USA) were coated overnight at 4 °C with 2 µg/mL peptide-KLH in PBS.” left out, “Maxisorp 96-well microtitre plates (Nunc) were coated overnight at 4 °C with 1 µg/mL streptavidin in PBS. The plates were blocked with 1% BSA in PBS for 2 h before adding 1:500 biotinylated peptides. Individual sera samples were diluted 1:1000 in blocking solution before addition to the peptide array.” left out
Anti-peptide antibody titres in the sera of immunised mice were determined using ELISA plates coated with the corresponding peptide-bovine serum albumin (BSA) conjugates. […]

Compound | specificity of the induced antibodies (peptide array A-I) [1] | reactivity of pooled sera with FC27 merozoites [2] | reactivity of pooled sera with 3D7 merozoites (3D7 merozoites) | 4D11 IgG binding to BSA-peptide conjugate (4D11 IgG)
CC(=O)N[C@@H](CC(N)=O)C(=O)N[C@@H](CCCCN)C(=O)N[C@@H](CCC(=O)O)C(=O)N[C@@H](CC(N)=O)C(=O)N[C@@H](CSSC[C@H](NC(=O)[C@H](CC(N)=O)NC(=O)[C@H](CCC(=O)O)NC(=O)[C@H](CCCCN)NC(=O)[C@H](CC(N)=O)NC(C)=O)C(=O)NCC(=O)N[C@@H](C)C(=O)N[C@@H](C)C(=O)N[C@@H](CS)C(N)=O)C(=O)NCC(=O)N[C@@H](C)C(=O)N[C@@H](C)C(N)=O [Peptide D1] (I: Ac-NKENCGAAC-NH2 / II: Ac-NKENCGAA-NH2; disulfide I:5-II:5) | almost exclusively directed to the 4D11 epitope | weak reactivity | weak reactivity | –
SKWICANRSVCPI [non-relevant peptide maleimide-conjugated to BSA, linker control] | – | – | – | no 4D11 IgG binding

Source: article PMC8402609, “Guiding the Immune Response to a Conserved Epitope in MSP2, an Intrinsically Disordered Malaria Vaccine Candidate” (Vaccines, 2021)
